Laboratory results: patent publication US20230112484A1, “COMPOSITIONS FOR CROP PROTECTION” (Agrematch Ltd., priority 2020, published 2023)

Assays:
Format in all cases: in vivo
Amaranthus palmeri [1] = test: Paper germination (Example 1); conditions: 0.1 mg/ml
Procedure: (§1) Compounds were dissolved in DMSO and then in distilled water to get 0.1 or 0.5 mg/ml solution with 0.5% DMSO.
(§2) 0.5% DMSO solution in water was used as a negative control. As a positive control, 0.1 mg/ml oxyfluorfen (Galigan) solution was used.
(§3) A towel paper was placed in each box as bedding for seeds. Each box was soaked with 6 ml of the solutions on its paper. 13 seeds were placed on the wet paper and the box was sealed and incubated under conditions provided bellow.
Amaranthus palmeri—first 2 days under dark conditions. Plants were first incubated at 25° C. for 8 hr, then at 30° C. for 16 hr. Afterwards, plants were incubated at 25° C. for 8 hr in dark, followed by 16 hr incubation at 30° C. in light.
(§4) Gemination was assessed and scored after 3-7 days. Scoring scale: 0—complete germination inhibition, 100—no effect.

Lolium rigidum [2] = test: Paper germination (Example 1); conditions: 0.1 mg/ml
Procedure: as §1, §2, §3
Lolium rigidum—first 4 days under dark conditions at 21° C. Afterwards, plants were incubated at 21° C. for 8 hr in dark, followed by 16 hr at 21° C. in light.
as §4

Lolium rigidum [3] = test: Soil germination (Example 1)
Procedure: (§5) Compounds were dissolved in DMSO and then in distilled water to get 0.01-2 mg/ml solution with 1% or 2% DMSO. 1% or 2% DMSO solution in water was used as a negative control. As a positive control, 0.1 or 0.2 mg/ml oxyfluorfen (Galigan) solution was used.
(§6) Flowerpots were filled with 30 g of soil, and 4-5 seeds were sowed in each flowerpot. Each treatment contained 3 flowerpots. Each flowerpot was sprayed with 1.5 ml of the dissolved compound. Soil was let dry for about 1 hour at room conditions, and then each flowerpot was sub-irrigated with 40 ml water and incubated under conditions provided below.
(§7) Amaranthus palmeri was incubated at 25° C. for 8 hr in dark, followed by 16 hr at 30° C. in light. Lolium rigidum was incubated at 21° C. for 8 hr in dark, followed by 16 hr at 21° C. in light. Germination was assessed and scored after 4-7 days. Scoring scale: 0—complete germination inhibition, 100—no effect.

Amaranthus palmeri [4] = test: Soil germination (Example 1); conditions: for Amaranthus palmeri soil germination: score 0 = complete germination inhibition, 100 = no effect
Procedure: as §5, §6, §7

Abutilon theophrasti [5] = test: Foliar experiment (Example 2); conditions: 0.5 mg/ml; score 0 = complete phytotoxic effect, 100 = no effect
Procedure: (§8) Compounds were dissolved in DMSO and then in distilled water to get 0.1 or 0.5 mg/ml solution with 2% DMSO. Break-Thru surfactant was added to a final concentration of 0.05%. Negative control—an aqueous solution of 2% DMSO and 0.05% Break-Thru. Positive control—2 mg/ml Glyphosate (Roundup). 1.5 ml of each compound solution were sprayed on the foliage of different plants, which were 6-16 days old at the day of the experiment. Each treatment contained 3 pots. Plants were let dry for about 15 minutes at room conditions, and then incubated at controlled growth chambers. Phytotoxicity was assessed and scored 4-10 days after applications. Scoring scale: 0—complete phytotoxic effect, 100—no effect. [table]

Amaranthus palmeri [6] = test: Foliar experiment (Example 2); conditions: 0.5 mg/ml; score 0 = complete phytotoxic effect, 100 = no effect; 4-10 days after application
Procedure: as §8

Brassica napus [7] = test: Foliar experiment (Example 2); conditions: 0.5 mg/ml; score 0 = complete phytotoxic effect, 100 = no effect
Procedure: as §8

Echinochloa colonum [8] = test: Foliar experiment (Example 2); conditions: 0.5 mg/ml; score 0 = complete phytotoxic effect, 100 = no effect
Procedure: as §8

Gossypium hirsutum [9] = test: Foliar experiment (Example 2); conditions: 0.5 mg/ml; score 0 = complete phytotoxic effect, 100 = no effect
Procedure: as §8

Lactuca sativa [10] = test: Foliar experiment (Example 2); conditions: 0.5 mg/ml; score 0 = complete phytotoxic effect, 100 = no effect
Procedure: as §8

Lolium rigidum [11] = test: Foliar experiment (Example 2); conditions: 0.5 mg/ml; score 0 = complete phytotoxic effect, 100 = no effect
Procedure: as §8

Phalaris brachystachys = test: Foliar experiment (Example 2); conditions: 0.5 mg/ml; score 0 = complete phytotoxic effect, 100 = no effect
Procedure: as §8

Setaria adhaerens [12] = test: Foliar experiment (Example 2); conditions: 0.5 mg/ml; score 0 = complete phytotoxic effect, 100 = no effect
Procedure: as §8

Sinapis alba [13] = test: Foliar experiment (Example 2); conditions: 0.5 mg/ml; score 0 = complete phytotoxic effect, 100 = no effect
Procedure: as §8

Solarium nigrum [14] = test: Foliar experiment (Example 2); conditions: 0.5 mg/ml; score 0 = complete phytotoxic effect, 100 = no effect
Procedure: as §8

Triticum vulgare [15] = test: Foliar experiment (Example 2); conditions: 0.5 mg/ml; score 0 = complete phytotoxic effect, 100 = no effect
Procedure: as §8

Zea mays [16] = test: Foliar experiment (Example 2); conditions: 0.5 mg/ml; score 0 = complete phytotoxic effect, 100 = no effect
Procedure: as §8

Abutilon theophrasti [17] = test: Soil germination (Example 3); conditions: 0.5 mg/ml; score 0 = complete germination inhibition, 100 = no effect; after 7 days
Procedure: (§9) Compounds were dissolved in DMSO and then in distilled water to get 0.1 or 0.5 mg/ml solution with 2% DMSO. 2% DMSO solution in water was used as a negative control. No positive control was used in this assay. Flowerpots were filled with 30 g of soil, each treatment contained three flowerpots. Each flowerpot was sprayed with 1.5 ml of the dissolved compound. Soil was let dry for about 1 hour at room conditions, and then each flowerpot was sub-irrigated with 40 ml water and incubated at controlled growth chambers, under conditions provided on table 6. Gemination was assessed and scored after 7 days. Scoring scale: 0—complete germination inhibition, 100—no effect. [table]

Amaranthus palmeri [18] = test: Soil germination (Example 3); conditions: 0.5 mg/ml; score 0 = complete germination inhibition, 100 = no effect; after 7 days
Procedure: as §9

Brassica napus [19] = test: Soil germination (Example 3); conditions: 0.5 mg/ml; score 0 = complete germination inhibition, 100 = no effect; after 7 days
Procedure: as §9

Echinochloa colonum [20] = test: Soil germination (Example 3); conditions: 0.5 mg/ml; score 0 = complete germination inhibition, 100 = no effect; after 7 days
Procedure: as §9

Gossypium hirsutum [21] = test: Soil germination (Example 3); conditions: 0.5 mg/ml; score 0 = complete germination inhibition, 100 = no effect; after 7 days
Procedure: as §9

Lactuca sativa [22] = test: Soil germination (Example 3); conditions: 0.5 mg/ml; score 0 = complete germination inhibition, 100 = no effect; after 7 days
Procedure: as §9

Lolium rigidum [23] = test: Soil germination (Example 3); conditions: 0.5 mg/ml; score 0 = complete germination inhibition, 100 = no effect; after 7 days
Procedure: as §9

Setaria adhaerens [24] = test: Soil germination (Example 3); conditions: 0.5 mg/ml; score 0 = complete germination inhibition, 100 = no effect; after 7 days
Procedure: as §9

Sinapis alba [25] = test: Soil germination (Example 3); conditions: 0.5 mg/ml; score 0 = complete germination inhibition, 100 = no effect; after 7 days
Procedure: as §9

Solarium nigrum [26] = test: Soil germination (Example 3); conditions: 0.5 mg/ml; score 0 = complete germination inhibition, 100 = no effect; after 7 days
Procedure: as §9

Triticum vulgare [27] = test: Soil germination (Example 3); conditions: 0.5 mg/ml; score 0 = complete germination inhibition, 100 = no effect; after 7 days
Procedure: as §9

Zea mays [28] = test: Soil germination (Example 3); conditions: 0.5 mg/ml; score 0 = complete germination inhibition, 100 = no effect; after 7 days
Procedure: as §9

a variety of plants = test: Foliar experiment (Example 2), overall statement; conditions: as shown in Table 5
Procedure: as §8

## CC(Cl)/C=C/C(=O)N(CC(C)C)c1ccc(Cl)cc1F (stereo not shown)
Amaranthus palmeri [1]
  paper germination reduction of Amaranthus palmeri: not active
Lolium rigidum [2]
  paper germination reduction of Lolium rigidum: not active
Lolium rigidum [3]; 1 mg/ml
  Lolium rigidum soil germination: unable to reduce soil germination

## CC(Cl)/C=C/C(=O)N(Cc1ccc(Cl)s1)CC(C)C (stereo not shown) [Compound 4]
Amaranthus palmeri [4]; 0.1 mg/ml
  Amaranthus palmeri soil germination: 0
Amaranthus palmeri [4]; 0.25 mg/ml
  Amaranthus palmeri soil germination: 0
Amaranthus palmeri [4]; 0.5 mg/ml
  Amaranthus palmeri soil germination: 0
Amaranthus palmeri [4]; 1 mg/ml
  Amaranthus palmeri soil germination: 0
Amaranthus palmeri [4]; concentration not given
  soil germination of Amaranthus palmeri, result in words: active
Lolium rigidum [3]; 0.5 mg/ml, score 0 = complete germination inhibition, 100 = no effect
  Lolium rigidum soil germination: 60
Lolium rigidum [3]; 2 mg/ml, score 0 = complete germination inhibition, 100 = no effect
  Lolium rigidum soil germination: 70
Lolium rigidum [3]; concentration not given
  soil germination of Lolium rigidum, result in words: active
Abutilon theophrasti [5]
  Herbicidal activity, foliar, Abutilon theophrasti: 5
Amaranthus palmeri [6]
  Herbicidal activity, foliar, Amaranthus palmeri: 0
Brassica napus [7]
  Herbicidal activity, foliar, Brassica napus: 0
Echinochloa colonum [8]
  Herbicidal activity, foliar, Echinochloa colonum: 70
Gossypium hirsutum [9]
  Herbicidal activity, foliar, Gossypium hirsutum: 60
Lactuca sativa [10]
  Herbicidal activity, foliar, Lactuca sativa: 0
Lolium rigidum [11]
  Herbicidal activity, foliar, Lolium rigidum: 10
Phalaris brachystachys
  Herbicidal activity, foliar, Phalaris brachystachys: 5
Setaria adhaerens [12]
  Herbicidal activity, foliar, Setaria adhaerens: 5
Sinapis alba [13]
  Herbicidal activity, foliar, Sinapis alba: 10
Solarium nigrum [14]
  Herbicidal activity, foliar, Solarium nigrum: 0
Triticum vulgare [15]
  Herbicidal activity, foliar, Triticum vulgare: 100
Zea mays [16]
  Herbicidal activity, foliar, Zea mays: 80
Abutilon theophrasti [17]
  Herbicidal activity, soil germination, Abutilon theophrasti: 10
Amaranthus palmeri [18]
  Herbicidal activity, soil germination, Amaranthus palmeri: 0
Brassica napus [19]
  Herbicidal activity, soil germination, Brassica napus: 10
Echinochloa colonum [20]
  Herbicidal activity, soil germination, Echinochloa colonum: 5
Gossypium hirsutum [21]
  Herbicidal activity, soil germination, Gossypium hirsutum: 90
Lactuca sativa [22]
  Herbicidal activity, soil germination, Lactuca sativa: 70
Lolium rigidum [23]
  Herbicidal activity, soil germination, Lolium rigidum: 60
Setaria adhaerens [24]
  Herbicidal activity, soil germination, Setaria adhaerens: 5
Sinapis alba [25]
  Herbicidal activity, soil germination, Sinapis alba: 30
Solarium nigrum [26]
  Herbicidal activity, soil germination, Solarium nigrum: 10
Triticum vulgare [27]
  Herbicidal activity, soil germination, Triticum vulgare: 60
Zea mays [28]
  Herbicidal activity, soil germination, Zea mays: 80
A variety of plants
  Herbicidal activity in a variety of plants, foliar, result in words: solid herbicidal activity
